# Experimental data: paper PMC13621370, “Targeting Telomere Shelterin Protein TPP1 with Elbasvir: Induction of Autophagy and Suppression of Esophageal Cancer Tumorigenesis” (Anti-Cancer Agents in Medicinal Chemistry, 2025)
# Target: T1, telomere shelterin protein TPP1 (Homo sapiens, UniProt Q96AP0)
# T1 construct: gene ACD; endogenous protein in RIPA lysate of KYSE150 and TE1 cells; not purified; 2I46 used only for docking
# T1 sequence (Q96AP0 1-458): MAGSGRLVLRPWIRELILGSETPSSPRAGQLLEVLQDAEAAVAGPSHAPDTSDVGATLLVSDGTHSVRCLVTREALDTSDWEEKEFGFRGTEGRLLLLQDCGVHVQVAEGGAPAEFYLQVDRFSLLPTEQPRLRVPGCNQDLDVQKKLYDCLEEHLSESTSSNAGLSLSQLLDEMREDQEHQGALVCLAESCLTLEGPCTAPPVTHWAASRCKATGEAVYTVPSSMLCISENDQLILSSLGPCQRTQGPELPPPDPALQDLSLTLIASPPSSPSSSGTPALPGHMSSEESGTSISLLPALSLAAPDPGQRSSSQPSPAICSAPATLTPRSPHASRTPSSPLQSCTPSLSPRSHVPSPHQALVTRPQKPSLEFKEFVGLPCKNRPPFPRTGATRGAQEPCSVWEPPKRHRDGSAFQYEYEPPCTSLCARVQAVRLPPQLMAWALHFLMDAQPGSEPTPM
# Assay: DARTS (pronase protection, Western blot of TPP1)
# Assay type: biochemical
# Conditions: 400 uM Elbasvir, cell lysate, ambient temperature, 2 h, then pronase 20 min
structure (smiles),measurement,value
COC(=O)N[C@H](C(=O)N1CCC[C@H]1c1ncc(-c2ccc3c(c2)O[C@@H](c2ccccc2)n2c-3cc3cc(-c4cnc([C@@H]5CCCN5C(=O)[C@@H](NC(=O)OC)C(C)C)[nH]4)ccc32)[nH]1)C(C)C [Elbasvir],"DARTS (pronase protection, Western blot of TPP1)","the presence of Elbasvir increased the stability of TPP1 protein, protecting it from proteolysis"
